The values below come from patent US20020026053A1, “Novel 3-(substituted) -2- indolinones compounds and use thereof as inhibitors of protein kinase activity” (priority 1997, published 2002).

This test concerns the target T1, Met receptor (EGFR/Met chimeric cells, EMR) (Homo sapiens, UniProt P08581).
T1 construct: expressed in transfected cells; the other entry of the earlier key: EGFR (P00533, Epidermal growth factor receptor)
Kind of test: Met Autophosphorylation Assay. The note with it: protocol P.130. Format: biochemical. The method in brief: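 Met phosphorylation was measured by capture ELISA. Lysates (90 μg/100 μl, HNTG plus 1 mM PMSF) from transiently transfected EGFR/Met chimera (EMR) cells were bound for 60 min at room temperature to wells holding rabbit anti-Met (C-28) on goat anti-rabbit coat. Phosphotyrosine was the read-out.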

T1 sequence (P08581 with tags, fused parts or gaps): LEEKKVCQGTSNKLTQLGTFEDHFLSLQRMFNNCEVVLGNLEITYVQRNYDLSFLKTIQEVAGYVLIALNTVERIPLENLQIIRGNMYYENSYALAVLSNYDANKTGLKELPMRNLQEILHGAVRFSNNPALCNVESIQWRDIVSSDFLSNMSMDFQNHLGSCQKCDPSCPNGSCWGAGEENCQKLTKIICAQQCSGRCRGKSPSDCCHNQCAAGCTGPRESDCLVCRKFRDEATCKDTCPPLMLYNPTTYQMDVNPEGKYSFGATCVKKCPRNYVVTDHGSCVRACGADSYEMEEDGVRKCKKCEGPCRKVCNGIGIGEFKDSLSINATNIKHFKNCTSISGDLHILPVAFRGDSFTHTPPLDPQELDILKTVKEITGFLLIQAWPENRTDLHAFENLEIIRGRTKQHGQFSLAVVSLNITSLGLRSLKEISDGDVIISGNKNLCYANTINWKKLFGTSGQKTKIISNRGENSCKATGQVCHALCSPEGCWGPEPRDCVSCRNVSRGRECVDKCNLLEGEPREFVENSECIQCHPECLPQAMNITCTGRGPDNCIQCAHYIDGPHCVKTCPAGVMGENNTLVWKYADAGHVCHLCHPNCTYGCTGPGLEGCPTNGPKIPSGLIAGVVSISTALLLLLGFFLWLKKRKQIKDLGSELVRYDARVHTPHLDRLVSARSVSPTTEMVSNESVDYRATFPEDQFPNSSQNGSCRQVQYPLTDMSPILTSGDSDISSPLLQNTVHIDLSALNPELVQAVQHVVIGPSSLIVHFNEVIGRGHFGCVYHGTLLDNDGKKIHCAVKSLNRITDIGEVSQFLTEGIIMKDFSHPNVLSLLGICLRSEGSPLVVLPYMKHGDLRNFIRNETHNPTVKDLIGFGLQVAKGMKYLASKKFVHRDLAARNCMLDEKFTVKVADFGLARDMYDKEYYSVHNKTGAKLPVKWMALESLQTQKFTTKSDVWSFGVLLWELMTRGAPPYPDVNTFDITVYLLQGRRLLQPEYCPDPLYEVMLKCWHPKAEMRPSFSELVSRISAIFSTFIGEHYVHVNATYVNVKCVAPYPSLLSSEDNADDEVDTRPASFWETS

For the molecule `COC1CCCN1C=C1C(=O)Nc2c(Br)cc(Br)cc21` (racemic) [10740/A04], the “Met Kinase % Inhibition (P.130)” value was found to be 48.2%.
Consider `COC1CCCN1C=C1C(=O)Nc2ccc(I)cc21` (racemic) [10740/B04], for which the “Met Kinase % Inhibition (P.130)” value came out at 76.7%.
With `Cc1c(Br)cc(Br)c2c1C(=Cc1ccc(CO)o1)C(=O)N2` [10739/H11], the “Met Kinase % Inhibition (P.130)” value is recorded as 75.8%.
The same measure for `O=C1Nc2c(Br)cc(Br)cc2C1=Cc1cnc2ccccc2c1` [10740/A02]: 56.3%; for `O=C1Nc2c(Br)cc(Br)cc2C1=Cc1ccnc2ccccc12` [10740/A03]: 77.8%.
Under `O=C1Nc2c(Br)cc(Br)cc2C1=Cc1ccsc1` [10740/A05] stands 79.5%.
Under `O=C1Nc2c(Br)cc(Br)cc2C1=Cc1ccc2ccccc2n1` [10740/A06] stands 48.5%.
`Cn1cc(C=C2C(=O)Nc3c(Br)cc(Br)cc32)c2ccccc21` [10740/A07]: the “Met Kinase % Inhibition (P.130)” value was found to be 54.9%.
The same measure for `Cc1[nH]c2ccccc2c1C=C1C(=O)Nc2c(Br)cc(Br)cc21` [10740/A08]: 43.2%; for `O=C1Nc2c(Br)cc(Br)cc2C1=Cc1cc(Br)cs1` [10740/A10]: 45.1%.
The same measure for `CCCCOc1ccc(C=C2C(=O)Nc3c(Br)cc(Br)cc32)cc1` [10740/A11]: 30.3%; for `O=C1Nc2ccc(I)cc2C1=Cc1cnc2ccccc2c1` [10740/B02]: 79.2%; for `O=C1Nc2ccc(I)cc2C1=Cc1ccnc2ccccc12` [10740/B03]: 84.8%.
Regarding `O=C1Nc2ccc(I)cc2C1=Cc1ccsc1` [10740/B05], the “Met Kinase % Inhibition (P.130)” value came to 82.3%.
The same measure for `O=C1Nc2ccc(I)cc2C1=Cc1ccc2ccccc2n1` [10740/B06]: 68.9%; for `Cn1cc(C=C2C(=O)Nc3ccc(I)cc32)c2ccccc21` [10740/B07]: 73.7%.
Under `Cc1[nH]c2ccccc2c1C=C1C(=O)Nc2ccc(I)cc21` [10740/B08] stands 65.0%; under `O=C1Nc2ccc(I)cc2C1=Cc1cc(Br)cs1` [10740/B10], 58.0%; under `CCCCOc1ccc(C=C2C(=O)Nc3ccc(I)cc32)cc1` [10740/B11], 68.6%.
Under `Cc1c(Br)ccc2c1C(=Cc1cnc3ccccc3c1)C(=O)N2` [10740/C02] stands 45.1%; under `Cc1c(Br)ccc2c1C(=Cc1ccnc3ccccc13)C(=O)N2` [10740/C03], 63.6%; under `COC1CCCN1C=C1C(=O)Nc2ccc(Br)c(C)c21` (stereo not shown) [10740/C04], −4.9%.
As to `Cc1c(Br)ccc2c1C(=Cc1ccsc1)C(=O)N2` [10740/C05], the “Met Kinase % Inhibition (P.130)” value is listed as 66.1%.
Consider `Cc1c(Br)ccc2c1C(=Cc1ccc3ccccc3n1)C(=O)N2` [10740/C06], for which the “Met Kinase % Inhibition (P.130)” value is 49.3%.
Under `Cc1c(Br)ccc2c1C(=Cc1cn(C)c3ccccc13)C(=O)N2` [10740/C07] stands 44.3%.
Regarding `Cc1[nH]c2ccccc2c1C=C1C(=O)Nc2ccc(Br)c(C)c21` [10740/C08], the “Met Kinase % Inhibition (P.130)” value amounted to 28.7%.
Under `Cc1c(Br)ccc2c1C(=Cc1cc(Br)cs1)C(=O)N2` [10740/C10] stands −1.8%; under `CCCCOc1ccc(C=C2C(=O)Nc3ccc(Br)c(C)c32)cc1` [10740/C11], −10.8%; under `CNS(=O)(=O)c1ccc2c(c1)C(=Cc1cnc3ccccc3c1)C(=O)N2` [10740/D02], 49.9%.
The same measure for `CNS(=O)(=O)c1ccc2c(c1)C(=Cc1ccnc3ccccc13)C(=O)N2` [10740/D03]: 64.4%; for `CNS(=O)(=O)c1ccc2c(c1)C(=CN1CCCC1OC)C(=O)N2` (stereo not shown) [10740/D04]: 19.4%.
